Here are results for 13 compounds from PubChem BioAssay AID280 (DTP/NCI, 2004).

For this experiment, the system named is nude mice, LOX melanoma ip, survival T/C. The experiment in a line: NCI In Vivo Anticancer Drug Screen. Data for tumor model Human Amelanotic Melanoma (LOX) (intraperitoneal) in NU/NU BALB/C (nude) mice. The conditions noted are these: endpoint: median survival time, higher = longer survival. As to the method: The antitumor activity of compounds was measured in mice bearing transplantable tumors. Survival or tumor size were measured and the results are expressed as the measurement made in the treated group (T) divided by the measurement made in the vehicle treated control group (C). The tumor model used in this assay is Human Amelanotic Melanoma (LOX) (intraperitoneal) in NU/NU BALB/C (nude) mice

Setting [1] is: dose: 50.0 mg/kg/injection, schedule: Q04DX003 (ip), vehicle: saline with Tween-80.
[2] abbreviates: dose: 100.0 mg/kg/injection, schedule: Q04DX003 (ip), vehicle: saline with Tween-80.
[3] abbreviates: dose: 400.0 mg/kg/injection, schedule: Q04DX003 (ip), vehicle: saline with Tween-80.
[4] abbreviates: dose: 800.0 mg/kg/injection, schedule: Q04DX003 (ip), vehicle: saline with Tween-80.
Where [5] appears, read: dose: 12.5 mg/kg/injection, schedule: Q04DX003 (ip), vehicle: saline with Tween-80.
[6] abbreviates: dose: 25.0 mg/kg/injection, schedule: Q04DX003 (ip), vehicle: saline with Tween-80.

“And” between values parts separate entries of the source, which are not always exact repeats. Equal entries are not always repeated. Toxic doses and inconclusive results are not listed.

`Cc1ccc2c(c1)n([O-])c1cc(Cl)ccc1[n+]2=O`: the T/C was 111 % of control under setting [1]; 123 % of control under setting [2]; 116 % of control (dose: 172.0 mg/kg/injection, schedule: Q04DX003 (ip), vehicle: saline with Tween-80); 108 % of control (dose: 288.0 mg/kg/injection, schedule: Q04DX003 (ip), vehicle: saline with Tween-80); 111 % of control under setting [3]; 113 % of control (dose: 480.0 mg/kg/injection, schedule: Q04DX003 (ip), vehicle: saline with Tween-80). Further, the T/C under setting [4] is 107 % of control and the T/C (dose: 1333.0 mg/kg/injection, schedule: Q04DX003 (ip), vehicle: saline with Tween-80) was 110 % of control.
As for `C/C(=N\NC(=S)N1CC2CCC(CC2)C1)c1nccs1`, the T/C under setting [5] is 101 % of control, the T/C under setting [6] was 107 % of control, the T/C under setting [1] was 118 % of control and the T/C under setting [2] was 118 % of control.
As for `Oc1ccc(/C=N/Nc2nnc(N/N=C/c3ccc(O)cc3O)c3ccccc23)c(O)c1`, the T/C is, setting by setting: (dose: 12.5 mg/kg/injection, schedule: Q04DX003 (ip), vehicle: suspension in saline) 120 % of control; (dose: 25.0 mg/kg/injection, schedule: Q04DX003 (ip), vehicle: suspension in saline) 119 % of control.
For `CC(=O)O[C@H]1C(=O)[C@@]2(C)[C@H]([C@H](OC(=O)c3ccccc3)[C@]3(O)C[C@H](OC(=O)[C@H](O)[C@@H](NC(=O)c4ccccc4)c4ccccc4)C(C)=C1C3(C)C)[C@]1(OC(C)=O)CO[C@@H]1C[C@@H]2O`, the T/C is, setting by setting: (dose: 1.88 mg/kg/injection, schedule: Q01DX009 (ip), vehicle: Klucel (hydroxypropylcellulose) (HPC)) 172 % of control; (dose: 3.75 mg/kg/injection, schedule: Q01DX009 (ip), vehicle: Klucel (hydroxypropylcellulose) (HPC)) 158 % of control and 173 % of control; (dose: 7.5 mg/kg/injection, schedule: Q01DX009 (ip), vehicle: Klucel (hydroxypropylcellulose) (HPC)) 170 % of control; (dose: 15.0 mg/kg/injection, schedule: Q01DX009 (ip), vehicle: Klucel (hydroxypropylcellulose) (HPC)) 105 % of control and 93 % of control.
With `NC(=O)CCC(N)C(=O)O` (configuration not stated), the T/C runs as follows: (dose: 75.0 mg/kg/injection, schedule: Q04DX003 (ip), vehicle: suspension in saline) 101 % of control; (dose: 150.0 mg/kg/injection, schedule: Q04DX003 (ip), vehicle: suspension in saline) 90 % of control; (dose: 300.0 mg/kg/injection, schedule: Q04DX003 (ip), vehicle: suspension in saline) 95 % of control; (dose: 600.0 mg/kg/injection, schedule: Q04DX003 (ip), vehicle: suspension in saline) 102 % of control; (dose: 1200.0 mg/kg/injection, schedule: Q04DX003 (ip), vehicle: suspension in saline) 101 % of control.
Take `COc1cc2c(c3c1c(=O)c1ccccc1n3C)C=CC(C)(C)O2`: the T/C reads like this: (dose: 12.5 mg/kg/injection, schedule: Q04DX003 (ip), vehicle: Klucel (hydroxypropylcellulose) (HPC)) 104 % of control; (dose: 25.0 mg/kg/injection, schedule: Q04DX003 (ip), vehicle: Klucel (hydroxypropylcellulose) (HPC)) 107 % of control and 97 % of control; (dose: 50.0 mg/kg/injection, schedule: Q04DX003 (ip), vehicle: Klucel (hydroxypropylcellulose) (HPC)) 107 % of control; (dose: 100.0 mg/kg/injection, schedule: Q04DX003 (ip), vehicle: Klucel (hydroxypropylcellulose) (HPC)) 87 % of control.
For `CCCCCCNc1nc(NCCCCCC)c2[nH]c(NCCCCCC)nc2n1`, the T/C was 123 % of control (dose: 37.5 mg/kg/injection, schedule: Q04DX003 (ip), vehicle: saline with Tween-80) and 122 % of control (dose: 150.0 mg/kg/injection, schedule: Q04DX003 (ip), vehicle: saline with Tween-80).
As for `CC(C)N1C(=O)N(Cl)C2C1N(Cl)C(=O)N2Cl` (configuration not stated), the T/C reads like this: (dose: 6.25 mg/kg/injection, schedule: Q04DX003 (ip), vehicle: saline with Tween-80) 103 % of control and 88 % of control; under setting [5], 102 % of control and 88 % of control; under setting [6], 109 % of control and 98 % of control; under setting [1], 107 % of control and 121 % of control; under setting [2], 102 % of control and 120 % of control.
Consider `BrC[P+](CBr)(CBr)CBr`, for which the T/C is 113 % of control under setting [1]; 121 % of control under setting [2]; 105 % of control (dose: 200.0 mg/kg/injection, schedule: Q04DX003 (ip), vehicle: saline with Tween-80); 103 % of control under setting [3]; 119 % of control under setting [4].
`CCCn1c(SC)nc(COC(=O)NC)c1COC(=O)NC`: the T/C is 104 % of control (dose: 30.0 mg/kg/injection, schedule: Q04DX003 (ip), vehicle: saline); 123 % of control (dose: 60.0 mg/kg/injection, schedule: Q04DX003 (ip), vehicle: saline); 98 % of control (dose: 106.8 mg/kg/injection, schedule: Q04DX003 (ip), vehicle: water); 119 % of control (dose: 120.0 mg/kg/injection, schedule: Q04DX003 (ip), vehicle: saline); 103 % of control (dose: 160.1 mg/kg/injection, schedule: Q04DX003 (ip), vehicle: water); 191 % of control (dose: 240.0 mg/kg/injection, schedule: Q04DX003 (ip), vehicle: saline). The T/C runs as follows: (dose: 240.0 mg/kg/injection, schedule: Q04DX003 (ip), vehicle: water) 122 % of control; (dose: 359.8 mg/kg/injection, schedule: Q04DX003 (ip), vehicle: water) 189 % of control; (dose: 480.0 mg/kg/injection, schedule: Q04DX003 (ip), vehicle: saline) 170 % of control.
As to `CCCCN1C(=O)N(c2ccc(OCC)cc2)C2N(CCCC)C1C(C)(C)C2(C)C` (configuration not stated), the T/C is, setting by setting: (dose: 15.0 mg/kg/injection, schedule: Q04DX003 (ip), vehicle: saline with Tween-80) 101 % of control; (dose: 30.0 mg/kg/injection, schedule: Q04DX003 (ip), vehicle: saline with Tween-80) 107 % of control; (dose: 60.0 mg/kg/injection, schedule: Q04DX003 (ip), vehicle: saline with Tween-80) 101 % of control and 102 % of control; (dose: 120.0 mg/kg/injection, schedule: Q04DX003 (ip), vehicle: saline with Tween-80) 101 % of control; (dose: 240.0 mg/kg/injection, schedule: Q04DX003 (ip), vehicle: saline with Tween-80) 98 % of control.
For `COC1=C(C)C(=O)C2=C(C1=O)C(CO)N1C(C#N)C3CC4C(C1C2N1CCOC41)N3C` (configuration not stated), the T/C (dose: 0.63 mg/kg/injection, schedule: Q04DX003 (ip), vehicle: acid diluted with saline) was 109 % of control; the T/C (dose: 0.63 mg/kg/injection, schedule: Q04DX003 (ip), vehicle: saline + alcohol) is 122 % of control; the T/C (dose: 1.25 mg/kg/injection, schedule: Q04DX003 (ip), vehicle: acid diluted with saline) was 123 % of control; the T/C (dose: 2.5 mg/kg/injection, schedule: Q04DX003 (ip), vehicle: acid diluted with saline) is 115 % of control; the T/C (dose: 2.5 mg/kg/injection, schedule: Q04DX003 (ip), vehicle: saline + alcohol) is 168 % of control.
For `COC1=C(OC)C(=O)C(N(C)C)=C(CO)C1=O`, the T/C runs as follows: (dose: 25.0 mg/kg/injection, schedule: Q04DX003 (ip), vehicle: saline) 116 % of control; (dose: 50.0 mg/kg/injection, schedule: Q04DX003 (ip), vehicle: saline) 103 % of control; (dose: 100.0 mg/kg/injection, schedule: Q04DX003 (ip), vehicle: saline) 104 % of control; (dose: 200.0 mg/kg/injection, schedule: Q04DX003 (ip), vehicle: saline) 117 % of control.
